Assay results taken from ChEMBL document CHEMBL1135189, “Discovery of non-zwitterionic GABA(A) receptor full agonists and a superagonist” (Bioorg Med Chem Lett, 2002).

Legend:
Format in all cases: functional
[1] = target: GABA-A receptor; anion channel; assay: Activation of chloride ion uptake into mouse brain synaptoneurosomes
[2] = target: T1, GABA-A receptor; anion channel (Mus musculus) (UniProt Q8BHJ7+P26048+Q8QZW7+P50571+Q9R0Y8+P22723+A2AMW3+P62812+Q9JLF1+P26049+P22933+Q9D6F4+P63080+P27681+P16305); assay: Agonistic activity against GABA-A receptor chloride uptake, full agonist
[3] = target: T1, GABA-A receptor; anion channel (Mus musculus); assay: Agonistic activity against GABA-A receptor chloride uptake, partial agonist
[4] = target: T1, GABA-A receptor; anion channel (Mus musculus); assay: Agonistic activity against GABA-A receptor chloride uptake, super-agonist
[5] = target: GABA-A receptor; anion channel; assay: Activation of chloride ion uptake into mouse brain synaptoneurosomes, no net uptake at […]

Compound	EC50 [1] [µM]	Emax [2]	Emax [3]	also measured
Oc1noc2c1CCNC2 [GABOXADOL]	335			
NCCCC(=O)NCCCCCCNC(=O)CCCN	643	433		
NCCCC(N)=O	317		307	
NCCCC(=O)NCCCCNC(=O)CCCN	475			Emax [4]: 578
NCCCC(=O)NCCNCC(=O)O				EC50 [5]: > 4000 µM
CC(=O)NCCCCNC(=O)CCCN	414	549		
NCCCCNC(=O)CCCN	1140	497		
NCCCC(=O)NCCNC(=O)CCCN	733		264	
NCCCC(=O)NCCN				EC50 [5]: > 4000 µM
CCCCNC(=O)CCCN	340		362	
